Data reported in US7795290B2 (Genentech, Inc., priority 2004, dated 2010).

What follows are compounds tested against T1, AKT1 (Homo sapiens, UniProt P31749) (assay: HTS ATP-utilizing enzyme assay, off-chip mobility-shift (Caliper HTS 250)). Settings: kinase named = inhibitory activity/selectivity; test compound 10 μM; active = greater than three-sigma from mean.
T1 construct: purchased Upstate 14-276
Type: biochemical
Procedure, shortened: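 AKT1 activity was measured by off-chip mobility shift (Caliper HTS 250) as the ratio of peptide substrate to phosphorylated product. Test compound was at 10 μM, with 2.5 h incubation at 20–22° C. EDTA wells served as 100% control and DMSO wells as 0%. Hits were called at three-sigma limits.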

T1 sequence (P31749 whole entry): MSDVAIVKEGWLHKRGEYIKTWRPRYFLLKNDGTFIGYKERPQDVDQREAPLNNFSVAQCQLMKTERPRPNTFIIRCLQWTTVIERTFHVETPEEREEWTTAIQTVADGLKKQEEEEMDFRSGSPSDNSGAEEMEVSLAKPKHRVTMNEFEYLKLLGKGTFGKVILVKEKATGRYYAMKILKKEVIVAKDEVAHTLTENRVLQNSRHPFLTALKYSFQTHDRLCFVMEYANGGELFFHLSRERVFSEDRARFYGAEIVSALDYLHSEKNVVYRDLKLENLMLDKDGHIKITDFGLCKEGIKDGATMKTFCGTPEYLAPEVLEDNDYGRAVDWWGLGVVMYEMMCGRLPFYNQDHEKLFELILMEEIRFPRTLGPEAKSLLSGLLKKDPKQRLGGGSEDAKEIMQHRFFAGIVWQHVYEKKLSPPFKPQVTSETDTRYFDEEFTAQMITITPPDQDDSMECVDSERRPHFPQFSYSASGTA

| Structure (SMILES) | Activity |
| --- | --- |
| CC(=O)NCCCC(=O)NCCCN(C(=O)c1cccs1)c1nc(-c2cc3ccccc3o2)cs1 [N-(3-(4-acetamidobutanamido)propyl)-N-(4-(benzofuran-2-yl)thiazol-2-yl)thiophene-2-carboxamide] | AKT1 |
| CN(C(=O)CCN(C(=O)c1cccs1)c1nc(-c2cc3ccccc3o2)cs1)c1ccncc1 [N-(4-(benzofuran-2-yl)thiazol-2-yl)-N-(3-(methyl(pyridin-4-yl)amino)-3-oxopropyl)thiophene-2-carboxamide] | AKT1 |
| CCCN(C(=O)c1cccs1)c1nc(-c2cc3ccccc3o2)cs1 [N-(4-(benzofuran-2-yl)thiazol-2-yl)-N-propylthiophene-2-carboxamide] | AKT1 |
| O=C(c1cccs1)N(CCCN1CCOCC1)c1nc(-c2ccc(Cl)s2)cs1 [N-(4-(5-chlorothiophen-2-yl)thiazol-2-yl)-N-(3-morpholinopropyl)thiophene-2-carboxamide] | AKT1 |
| O=C(c1cccs1)N(CCCN1CCOCC1)c1nc(-c2ccc3c(c2)OCCO3)cs1 [N-(4-(2,3-dihydrobenzo[b][1,4]dioxin-6-yl)thiazol-2-yl)-N-(3-morpholinopropyl)thiophene-2-carboxamide] | AKT1 |
| O=C(c1cccs1)N(CCCN1CCOCC1)c1nc(-c2ccc(Cl)cc2)cs1 [N-(4-(4-chlorophenyl)thiazol-2-yl)-N-(3-morpholinopropyl)thiophene-2-carboxamide] | AKT1 |
| CN(C)CCN1CCN(CCCN(C(=O)c2cccs2)c2nc(-c3cc4ccccc4o3)cs2)CC1 [N-(4-(benzofuran-2-yl)thiazol-2-yl)-N-(3-(4-(2-(dimethylamino)ethyl)piperazin-1-yl)propyl)thiophene-2-carboxamide] | AKT1 |
| NC(=O)C1CCCCN1C(=O)CCN(C(=O)c1cccs1)c1nc(-c2cc3ccccc3o2)cs1 (stereo not drawn) [1-(3-(N-(4-(benzofuran-2-yl)thiazol-2-yl)thiophene-2-carboxamido)propanoyl)piperidine-2-carboxamide] | AKT1 |
| O=C(c1cccs1)N(CCCN1CCC(CO)CC1)c1nc(-c2cc3ccccc3o2)cs1 [N-(4-(benzofuran-2-yl)thiazol-2-yl)-N-(3-(4-(hydroxymethyl)piperidin-1-yl)propyl)thiophene-2-carboxamide] | AKT1 |
| O=C(c1cccs1)N(CCC(=O)N(CCCCO)C1CCCCC1)c1nc(-c2cc3ccccc3o2)cs1 [N-(4-(benzofuran-2-yl)thiazol-2-yl)-N-(3-(cyclohexyl(4-hydroxybutyl)amino)-3-oxopropyl)thiophene-2-carboxamide] | AKT1 |
| Cc1ccc(-c2csc(N(CCCN3CCOCC3)C(=O)c3cccs3)n2)s1 [N-(4-(5-methylthiophen-2-yl)thiazol-2-yl)-N-(3-morpholinopropyl)thiophene-2-carboxamide] | AKT1 |
| COc1ccc(-c2csc(N(CCCN3CCOCC3)C(=O)c3nccn3C)n2)cc1 [N-(4-(4-methoxyphenyl)thiazol-2-yl)-1-methyl-N-(3-morpholinopropyl)-1H-imidazole-2-carboxamide] | AKT1 |
| Cc1cc(-c2csc(N(CCCN3CCOCC3)C(=O)c3cccs3)n2)ccc1Cl [N-(4-(4-chloro-3-methylphenyl)thiazol-2-yl)-N-(3-morpholinopropyl)thiophene-2-carboxamide] | AKT1 |
| NC(=O)C1CCCN(CCCN(C(=O)c2cccs2)c2nc(-c3cc4ccccc4o3)cs2)C1 (stereo not drawn) [1-(3-(N-(4-(benzofuran-2-yl)thiazol-2-yl)thiophene-2-carboxamido)propyl)piperidine-3-carboxamide] | AKT1 |
| COc1ccc(-c2csc(N(CCCN3CCOCC3)C(=O)c3ccccc3)n2)cc1OC [N-(4-(3,4-dimethoxyphenyl)thiazol-2-yl)-N-(3-morpholinopropyl)benzamide] | AKT1 |
| O=C(CCN(C(=O)c1cccs1)c1nc(-c2cc3ccccc3o2)cs1)N1CCCC(CO)C1 (stereo not drawn) [N-(4-(benzofuran-2-yl)thiazol-2-yl)-N-(3-(3-(hydroxymethyl)piperidin-1-yl)-3-oxopropyl)thiophene-2-carboxamide] | AKT1 |
| N#CCCN(CC1CCCO1)C(=O)CCCN(C(=O)c1cccs1)c1nc(-c2cc3ccccc3o2)cs1 (stereo not drawn) [N-(4-(benzofuran-2-yl)thiazol-2-yl)-N-(4-((2-cyanoethyl)((tetrahydrofuran-2-yl)methyl)amino)-4-oxobutyl)thiophene-2-carboxamide] | AKT1 |
| O=C(c1cccs1)N(CCCCN1CCOCC1)c1nc(-c2cc(-c3ccccc3)no2)cs1 [N-(4-morpholinobutyl)-N-(4-(3-phenylisoxazol-5-yl)thiazol-2-yl)thiophene-2-carboxamide] | AKT1 |
| COc1ccc(OC)c(-c2csc(N(CCCN3CCN(C)CC3)C(=O)c3ccccc3)n2)c1 [N-(4-(2,5-dimethoxyphenyl)thiazol-2-yl)-N-(3-(4-methylpiperazin-1-yl)propyl)benzamide] | AKT1 |
| O=C(c1cccs1)N(CCCc1ccccc1)c1nc(-c2cc3ccccc3o2)cs1 [N-(4-(benzofuran-2-yl)thiazol-2-yl)-N-(3-phenylpropyl)thiophene-2-carboxamide] | AKT1 |

| Structure (SMILES) | Activity |
| --- | --- |
| O=C(c1cccs1)N(CCCN1CCC(O)C1)c1nc(-c2cc3ccccc3o2)cs1 (stereo not drawn) [N-(4-(benzofuran-2-yl)thiazol-2-yl)-N-(3-(3-hydroxypyrrolidin-1-yl)propyl)thiophene-2-carboxamide] | AKT1 |
| COc1ccc(-c2csc(N(CCN3CCOCC3)C(=O)c3cccs3)n2)cc1OC [N-(4-(3,4-dimethoxyphenyl)thiazol-2-yl)-N-(2-morpholinoethyl)thiophene-2-carboxamide] | AKT1 |
| CN(C)CCCOc1cccc(-c2csc(N(CCCN3CCOCC3)C(=O)c3cccs3)n2)c1 [N-(4-(3-(3-(dimethylamino)propoxy)phenyl)thiazol-2-yl)-N-(3-morpholinopropyl)thiophene-2-carboxamide] | AKT1 |
| O=C(Nc1nncs1)c1csc(N(CCCN2CCOCC2)C(=O)c2cccs2)n1 [2-(N-(3-morpholinopropyl)thiophene-2-carboxamido)-N-(1,3,4-thiadiazol-2-yl)thiazole-4-carboxamide] | AKT1 |
| CCN(C(C)=O)C1CCN(CCCN(C(=O)c2cccs2)c2nc(-c3cc4ccccc4o3)cs2)C1 (stereo not drawn) [N-(4-(benzofuran-2-yl)thiazol-2-yl)-N-(3-(3-(N-ethylacetamido)pyrrolidin-1-yl)propyl)thiophene-2-carboxamide] | AKT1 |
| CCOC(=O)C1CCCN(CCCN(C(=O)c2cccs2)c2nc(-c3cc4ccccc4o3)cs2)C1 (stereo not drawn) [ethyl 1-(3-(N-(4-(benzofuran-2-yl)thiazol-2-yl)thiophene-2-carboxamido)propyl)piperidine-3-carboxylate] | AKT1 |
| COc1ccc(-c2csc(N(CCCN3CCOCC3)C(=O)c3cccs3)n2)cc1 [N-(4-(4-methoxyphenyl)thiazol-2-yl)-N-(3-morpholinopropyl)thiophene-2-carboxamide] | AKT1 |
| O=C(CCN(C(=O)c1cccs1)c1nc(-c2cc3ccccc3o2)cs1)N(CCO)CCO [N-(4-(benzofuran-2-yl)thiazol-2-yl)-N-(3-(bis(2-hydroxyethyl)amino)-3-oxopropyl)thiophene-2-carboxamide] | AKT1 |
| CCN(CC)C1CCN(CCCN(C(=O)c2cccs2)c2nc(-c3cc4ccccc4o3)cs2)CC1 [N-(4-(benzofuran-2-yl)thiazol-2-yl)-N-(3-(4-(diethylamino)piperidin-1-yl)propyl)thiophene-2-carboxamide] | AKT1 |
| COC(=O)C1CCCN1CCCN(C(=O)c1cccs1)c1nc(-c2cc3ccccc3o2)cs1 (stereo not drawn) [methyl 1-(3-(N-(4-(benzofuran-2-yl)thiazol-2-yl)thiophene-2-carboxamido)propyl)pyrrolidine-2-carboxylate] | AKT1 |
| COc1ccc(-c2csc(N(CCCN3CCOCC3)C(=O)c3ccccn3)n2)cc1OC [N-(4-(3,4-dimethoxyphenyl)thiazol-2-yl)-N-(3-morpholinopropyl)picolinamide] | AKT1 |
| CS(=O)(=O)c1ccc2c(c1)CCN2C(=O)CCCN(C(=O)c1cccs1)c1nc(-c2cc3ccccc3o2)cs1 [N-(4-(benzofuran-2-yl)thiazol-2-yl)-N-(4-(5-(methylsulfonyl)indolin-1-yl)-4-oxobutyl)thiophene-2-carboxamide] | AKT1 |
| O=C(c1cccs1)N(CCCN1CCOCC1)c1nc(-c2csc3ccccc23)cs1 [N-(4-(benzo[b]thiophen-3-yl)thiazol-2-yl)-N-(3-morpholinopropyl)thiophene-2-carboxamide] | AKT1 |
| O=C(NCCO)c1ccc(-c2csc(N(CCCN3CCOCC3)C(=O)c3cccs3)n2)cc1 [N-(4-(4-(2-hydroxyethylcarbamoyl)phenyl)thiazol-2-yl)-N-(3-morpholinopropyl)thiophene-2-carboxamide] | AKT1 |
| COc1ccc(-c2csc(N(CCCN3CCCC3=O)C(=O)c3cccs3)n2)cc1OC [N-(4-(3,4-dimethoxyphenyl)thiazol-2-yl)-N-(3-(2-oxopyrrolidin-1-yl)propyl)thiophene-2-carboxamide] | AKT1 |
| O=C(c1cccs1)N(CCCN1CCOCC1)c1nc(-c2ccccc2Cl)cs1 [N-(4-(2-chlorophenyl)thiazol-2-yl)-N-(3-morpholinopropyl)thiophene-2-carboxamide] | AKT1 |
| COC(=O)c1ccc(-c2csc(N(CCCN3CCOCC3)C(=O)c3cccs3)n2)nc1 [methyl 6-(2-(N-(3-morpholinopropyl)thiophene-2-carboxamido)thiazol-4-yl)nicotinate] | AKT1 |
| COc1ccc(-c2csc(N(CCCN3CCOCC3)C(=O)c3ccc(F)cc3)n2)cc1 [4-fluoro-N-(4-(4-methoxyphenyl)thiazol-2-yl)-N-(3-morpholinopropyl)benzamide] | AKT1 |
| O=C(c1cccs1)N(CCCN1CCOCC1)c1nc(-c2ccc(N3CCCC3)cc2)cs1 [N-(3-morpholinopropyl)-N-(4-(4-(pyrrolidin-1-yl)phenyl)thiazol-2-yl)thiophene-2-carboxamide] | AKT1 |
